Key:
Type in all cases: in vivo
Lolium multiflorum Lam. [1] = assay: Test Example 5: herbicidal effect by foliage application, plastic box (symbol K); settings: 320 g/ha, 3 weeks after application
In short: (§1)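 Seeds were sown in sterilized diluvial soil, covered with about 1.5 cm of soil and grown 14 days in a greenhouse at 25° C. to 30° C. An emulsifiable formulation diluted in water to a set rate was sprayed over foliage, and injury was scored 3 weeks later.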

[2] = system: Echinochloa crus-galli var. crus-galli; assay: Test Example 3: herbicidal effect by foliage application, Wagner pot (symbol H); settings: application herbicide amount 320 g/ha
In short: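 Foliar spray of a water-diluted emulsion at a predetermined herbicide amount, applied to 14-day-old plants. Seedlings were raised in flooded alluvial soil (0.1–0.5 cm water) at 25–30 °C in a greenhouse. Injury was rated after 3 weeks against fixed criteria.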

Alopecurus myosuroides = assay: Test Example 5: herbicidal effect by foliage application, plastic box (symbol J); settings: 320 g/ha, 3 weeks after application
In short: as §1

beet = assay: Test Example 5: effect on crop by foliage application, plastic box (symbol f); settings: 320 g/ha, 3 weeks after application
In short: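 Greenhouse test at 25° C. to 30° C. Seeds of crops and weeds were spot-sown in boxes of sterilized diluvial soil under roughly 1.5 cm soil cover, then grown for foliage treatment.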

Stellaria media = assay: Test Example 5: herbicidal effect by foliage application, plastic box (symbol P); settings: 320 g/ha, 3 weeks after application
In short: as §1

transplanted rice plant = assay: Test Example 1: effect on crop, application before weed generation in submerged conditions (symbol a); settings: application herbicide amount 320 g/ha
In short: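 Alluvial soil pots flooded to 4 cm water, sown with Echinochloa oryzacola, Scirpus juncoides and Monochoria vaginalis, then transplanted with 2.5 leaf stage rice seedlings; pre-emergence application. Greenhouse 25° C. to 30° C.; scored 0–5 by herbicidal ratio 3 weeks after application.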

Amaranthus retroflexus = assay: Test Example 4: herbicidal effect by soil treatment (symbol N); settings: application herbicide amount 320 g/ha
In short: (§2)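 Seeds were sown in sterilized diluvial soil, covered with about 1.5 cm of soil, and the soil surface was sprayed with a water-diluted emulsion of the compound at a predetermined rate. Plants grew in a greenhouse at 25° C. to 30° C.; effects were scored visually 3 weeks after application.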

Digitaria ciliaris [3] = assay: Test Example 5: herbicidal effect by foliage application, plastic box (symbol F); settings: 320 g/ha, 3 weeks after application
In short: as §1

Lolium multiflorum Lam. [4] = assay: Test Example 4: herbicidal effect by soil treatment (symbol K); settings: application herbicide amount 320 g/ha
In short: as §2

Digitaria ciliaris [5] = assay: Test Example 4: herbicidal effect by soil treatment (symbol F); settings: application herbicide amount 320 g/ha
In short: as §2

Abutilon theophrasti = assay: Test Example 5: herbicidal effect by foliage application, plastic box (symbol M); settings: 320 g/ha, 3 weeks after application
In short: as §1

wheat = assay: Test Example 4: effect on crop by soil treatment (symbol e); settings: application herbicide amount 320 g/ha
In short: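 Crop seeds, among them rice, wheat, beet and rapeseed, were sown in sterilized diluvial soil and covered with about 1.5 cm of soil. Boxes were kept in a greenhouse at 25° C. to 30° C. for plant growth.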

[6] = system: directly sowed rice plant; assay: Test Example 3: effect on crop by foliage application, Wagner pot (symbol b); settings: application herbicide amount 320 g/ha
In short: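 Alluvial soil in a 1/10000-are Wagner pot was flooded to a water depth of 0.1–0.5 cm. Echinochloa crus-galli var. crus-galli, Leptochloa chinensis, Cyperus difformis and rice were sown into it and grown in a greenhouse at 25–30 °C.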

Setaria viridis = assay: Test Example 4: herbicidal effect by soil treatment (symbol G); settings: application herbicide amount 320 g/ha
In short: as §2

Compound: C#CCON=C(C)CC1CC(O)=C(c2c(C)cc(C)cc2C)C1=O (stereo not shown) [1-019]
- K: Lolium multiflorum Lam., herbicidal effect grade (Lolium multiflorum Lam. [1]): 5 (Herbicidal ratio of 90% or more (almost completely withered))
- herbicidal effect on H (Echinochloa crus-galli var. crus-galli), grade 0-5 [2]: 5 (Herbicidal ratio of 90% or more (almost completely withered))
- J: Alopecurus myosuroides, herbicidal effect grade (Alopecurus myosuroides): 5 (Herbicidal ratio of 90% or more (almost completely withered))
- f: beet, effect on crop grade (beet): 4 (Herbicidal ratio of 70% or higher and lower than 90%)
- P: Stellaria media, herbicidal effect grade (Stellaria media): 4 (Herbicidal ratio of 70% or higher and lower than 90%)
- Effect grade on crop, a: transplanted rice plant (transplanted rice plant): 5 (Herbicidal ratio of 90% or more (almost completely withered))
- N (Amaranthus retroflexus) herbicidal effect grade (Amaranthus retroflexus): 3 (Herbicidal ratio of 40% or higher and lower than 70%)
- F: Digitaria ciliaris, herbicidal effect grade (Digitaria ciliaris [3]): 5 (Herbicidal ratio of 90% or more (almost completely withered))
- K (Lolium multiflorum Lam.) herbicidal effect grade (Lolium multiflorum Lam. [4]): 5 (Herbicidal ratio of 90% or more (almost completely withered))
- F (Digitaria ciliaris) herbicidal effect grade (Digitaria ciliaris [5]): 5 (Herbicidal ratio of 90% or more (almost completely withered))
- M: Abutilon theophrasti, herbicidal effect grade (Abutilon theophrasti): 4 (Herbicidal ratio of 70% or higher and lower than 90%)
- e (wheat) effect on crop grade (wheat): 3 (Herbicidal ratio of 40% or higher and lower than 70%)
- effect on crop b (directly sowed rice plant), grade 0-5 [6]: 5 (Herbicidal ratio of 90% or more (almost completely withered))
- G (Setaria viridis) herbicidal effect grade (Setaria viridis): 3 (Herbicidal ratio of 40% or higher and lower than 70%)

Compound: C=CCON=C(C)CC1CC(O)=C(c2c(C)cc(C)cc2C)C1=O (stereo not shown) [1-018]
- K: Lolium multiflorum Lam., herbicidal effect grade (Lolium multiflorum Lam. [1]): 5 (Herbicidal ratio of 90% or more (almost completely withered))
- herbicidal effect on H (Echinochloa crus-galli var. crus-galli), grade 0-5 [2]: 5 (Herbicidal ratio of 90% or more (almost completely withered))
- J: Alopecurus myosuroides, herbicidal effect grade (Alopecurus myosuroides): 5 (Herbicidal ratio of 90% or more (almost completely withered))
- f: beet, effect on crop grade (beet): 4 (Herbicidal ratio of 70% or higher and lower than 90%)
- P: Stellaria media, herbicidal effect grade (Stellaria media): 4 (Herbicidal ratio of 70% or higher and lower than 90%)
- Effect grade on crop, a: transplanted rice plant (transplanted rice plant): 5 (Herbicidal ratio of 90% or more (almost completely withered))
- N (Amaranthus retroflexus) herbicidal effect grade (Amaranthus retroflexus): 2 (Herbicidal ratio of 20% or higher and lower than 40%)
- F: Digitaria ciliaris, herbicidal effect grade (Digitaria ciliaris [3]): 5 (Herbicidal ratio of 90% or more (almost completely withered))
- K (Lolium multiflorum Lam.) herbicidal effect grade (Lolium multiflorum Lam. [4]): 5 (Herbicidal ratio of 90% or more (almost completely withered))
- F (Digitaria ciliaris) herbicidal effect grade (Digitaria ciliaris [5]): 5 (Herbicidal ratio of 90% or more (almost completely withered))
- M: Abutilon theophrasti, herbicidal effect grade (Abutilon theophrasti): 3 (Herbicidal ratio of 40% or higher and lower than 70%)
- e (wheat) effect on crop grade (wheat): 4 (Herbicidal ratio of 70% or higher and lower than 90%)
- effect on crop b (directly sowed rice plant), grade 0-5 [6]: 5 (Herbicidal ratio of 90% or more (almost completely withered))
- G (Setaria viridis) herbicidal effect grade (Setaria viridis): 3 (Herbicidal ratio of 40% or higher and lower than 70%)
